{"source": "patent EP2567959B1", "about": "“6-(4-HYDROXY-PHENYL)-3-STYRYL-1H-PYRAZOLO[3,4-B]PYRIDINE-4-CARBOXYLIC ACID AMIDE DERIVATIVES AS KINASE INHIBITORS” (SANOFI, priority 2011, dated 2013)", "data": [{"target": "T1, human full-length recombinant PKC βII (Homo sapiens, UniProt P05771)", "T1 construct": "Active human full-length recombinant PKC βII; purchased Invitrogen GmbH, Darmstadt, Germany", "T1 sequence (P05771 1-673 isoform P05771-2)": "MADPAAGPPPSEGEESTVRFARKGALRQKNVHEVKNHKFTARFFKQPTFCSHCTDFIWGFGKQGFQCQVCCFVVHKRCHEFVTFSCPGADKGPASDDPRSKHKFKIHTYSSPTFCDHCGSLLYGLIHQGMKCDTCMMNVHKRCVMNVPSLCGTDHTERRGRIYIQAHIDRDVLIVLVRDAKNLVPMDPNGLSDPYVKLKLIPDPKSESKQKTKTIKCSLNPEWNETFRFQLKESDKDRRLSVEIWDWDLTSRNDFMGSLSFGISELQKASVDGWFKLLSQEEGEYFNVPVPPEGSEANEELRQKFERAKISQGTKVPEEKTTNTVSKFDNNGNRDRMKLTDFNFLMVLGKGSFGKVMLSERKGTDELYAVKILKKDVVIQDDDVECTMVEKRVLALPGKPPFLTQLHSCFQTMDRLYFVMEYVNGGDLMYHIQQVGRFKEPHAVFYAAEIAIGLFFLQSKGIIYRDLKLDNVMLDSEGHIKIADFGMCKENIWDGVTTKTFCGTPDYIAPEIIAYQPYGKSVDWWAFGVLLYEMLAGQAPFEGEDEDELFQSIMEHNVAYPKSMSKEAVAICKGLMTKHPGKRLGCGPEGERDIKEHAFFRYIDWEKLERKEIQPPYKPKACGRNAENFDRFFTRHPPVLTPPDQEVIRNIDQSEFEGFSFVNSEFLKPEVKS", "assay": "Determination of PKC βII inhibition (Caliper mobility-shift kinase assay, phosphorylation of fluorescein peptide substrate)", "format": "biochemical", "conditions": "final compound concentration 1.14 µM (±0.15 µM); 60 min incubation at 32 °C", "summary_of_the_method": "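Active full-length PKC βII in pH 7.4 Hepes with MgCl2, CaCl2, PS, DAG and Triton X-100; substrate/ATP mix held 3 µM fluorescein peptide and 120 µM ATP before addition. Reaction ran 60 min at 32 °C, stopped with EDTA. Mobility-shift fractional turnover gave % inhibition at 1.14 µM (±0.15 µM) final compound.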", "units": {"inhibition at 1.14 µM": "%"}, "values": [{"compound": "CC1(NC(=O)c2cc(-c3ccc(O)cc3)nc3[nH]nc(/C=C/c4ccccc4)c23)CCNCC1", "note": "[Example 75, 6-(4-Hydroxy-phenyl)-3-((E)-styryl)-1H-pyra-zolo[3,4-b]-pyridine-4-car-boxylic acid (4-methyl-piperidin-4-yl)-amide]", "inhibition at 1.14 µM": 93}, {"compound": "CCCC[C@H]1CNCCN1C(=O)c1cc(-c2ccc(O)cc2)nc2[nH]nc(/C=C/c3ccccc3)c12", "note": "[Example 76, ((S)-2-Butyl-piperazin-1-yl)-[6-(4-hydroxy-phenyl)-3-((E)-styryl)-1H-pyra-zolo[3,4-b]-pyridin-4-yl]-methanone]", "inhibition at 1.14 µM": 57}, {"compound": "CCCC[C@@H]1CNCCN1C(=O)c1cc(-c2ccc(O)cc2)nc2[nH]nc(/C=C/c3ccccc3)c12", "note": "[Example 77, ((R)-2-Butyl-piperazin-1-yl)-[6-(4-hydroxy-phenyl)-3-((E)-styryl)-1H-pyra-zolo[3,4-b]-pyridin-4-yl]-methanone]", "inhibition at 1.14 µM": 79}, {"compound": "O=C(c1cc(-c2ccc(O)cc2)nc2[nH]nc(/C=C/c3ccccc3)c12)N1CCC2(CCNC2)C1", "note": "(centres unmarked) [Example 78, (2,7-Diaza-spiro-[4.4]non-2-yl)-[6-(4-hydroxy-phenyl)-3-((E)-styryl)-1H-pyra-zolo[3,4-b]py-ridin-4-yl]-methanone]", "inhibition at 1.14 µM": 94}, {"compound": "O=C(c1cc(-c2ccc(O)cc2)nc2[nH]nc(/C=C/c3ccccc3)c12)N1CCNC2(CCCC2)C1", "note": "[Example 79, (6,9-Diaza-spiro-[4.5]dec-9-yl)-[6-(4-hydroxy-phenyl)-3-((E)-styryl)-1H-pyra-zolo[3,4-b]py-ridin-4-yl]-methanone]", "inhibition at 1.14 µM": 97}, {"compound": "CCC(CC)C(=O)N1CCN(C(=O)c2cc(-c3ccc(O)cc3)nc3[nH]nc(/C=C/c4ccccc4)c23)CC1", "note": "[Example 80, 2-Ethyl-1-{4-[6-(4-hydroxy-phenyl)-3-((E)-styryl)-1H-pyra-zolo[3,4-b]pyri-dine-4-carbonyl]-piperazin-1-yl}-butan-1-one]", "inhibition at 1.14 µM": 26}, {"compound": "O=C(CN1CCOCC1)N1CCN(C(=O)c2cc(-c3ccc(O)cc3)nc3[nH]nc(/C=C/c4ccccc4)c23)CC1", "note": "[Example 81, 1-{4-[6-(4-Hydroxy-phenyl)-3-((E)-styryl)-1H-pyrazolo[3,4-b]-pyridine-4-car-bonyl]-piperazin-1-yl}-2-mor-pholin-4-yl-ethanone]", "inhibition at 1.14 µM": 45}, {"compound": "COC(=O)N1CCN(C(=O)c2cc(-c3ccc(O)cc3)nc3[nH]nc(/C=C/c4ccccc4)c23)CC1", "note": "[Example 82, 4-[6-(4-Hydroxy-phenyl)-3-((E)-styryl)-1H-pyra-zolo[3,4-b]pyri-dine-4-carbonyl]-piperazine-1-carboxylic acid methyl ester]", "inhibition at 1.14 µM": 56}, {"compound": "O=C(c1cccnc1)N1CCN(C(=O)c2cc(-c3ccc(O)cc3)nc3[nH]nc(/C=C/c4ccccc4)c23)CC1", "note": "[Example 83, [6-(4-Hydroxy-phenyl)-3-((E)-styryl)-1H-pyra-zolo[3,4-b]pyri-din-4-yl]-[4-(pyridine-3-carbonyl)-piperazin-1-yl]-methanone]", "inhibition at 1.14 µM": 90}, {"compound": "CN(C)C(=O)CN1CCN(C(=O)c2cc(-c3ccc(O)cc3)nc3[nH]nc(/C=C/c4ccccc4)c23)CC1", "note": "[Example 84, 2-{4-[6-(4-Hydroxy-phenyl)-3-((E)-styryl)-1H-pyrazolo[3,4-b]-pyridine-4-carbo-nyl]-piperazin-1-yl}-N,N-dimethyl-acetamide]", "inhibition at 1.14 µM": 54}, {"compound": "O=C(c1cc(-c2ccc(O)cc2)nc2[nH]nc(/C=C/c3ccccc3)c12)N1CCN(C2CC2)CC1", "note": "[Example 85, (4-Cyclopropyl-piperazin-1-yl)-[6-(4-hydroxy-phenyl)-3-((E)-styryl)-1H-pyra-zolo[3,4-b]py-ridin-4-yl]-methanone]", "inhibition at 1.14 µM": 19}, {"compound": "CC(C)(O)C(=O)N1CCN(C(=O)c2cc(-c3ccc(O)cc3)nc3[nH]nc(/C=C/c4ccccc4)c23)CC1", "note": "[Example 86, 2-Hydroxy-1-{4-[6-(4-hydroxy-phenyl)-3-((E)-styryl)-1H-pyra-zolo[3,4-b]pyri-dine-4-carbonyl]-piperazin-1-yl}-2-methyl-propan-1-one]", "inhibition at 1.14 µM": 93}, {"compound": "CC(C)(CO)C(=O)N1CCN(C(=O)c2cc(-c3ccc(O)cc3)nc3[nH]nc(/C=C/c4ccccc4)c23)CC1", "note": "[Example 87, 3-Hydroxy-1-{4-[6-(4-hydroxy-phenyl)-3-((E)-styryl)-1H-pyra-zolo[3,4-b]pyri-dine-4-carbonyl]-piperazin-1-yl}-2,2-dimethyl-propan-1-one]", "inhibition at 1.14 µM": 94}, {"compound": "COCCC(=O)N1CCN(C(=O)c2cc(-c3ccc(O)cc3)nc3[nH]nc(/C=C/c4ccccc4)c23)CC1", "note": "[Example 88, 1-{4-[6-(4-Hydroxy-phenyl)-3-((E)-styryl)-1H-pyrazolo[3,4-b]-pyridine-4-carbonyl]-piperazin-1-yl}-3-methoxy-propan-1-one]", "inhibition at 1.14 µM": 89}]}]}
